Assay results reported in PMC5011342, “A high throughput drug screening assay to identify compounds that promote oligodendrocyte differentiation using acutely dissociated and purified oligodendrocyte precursor cells” (BMC Research Notes, 2016).
Read-outs that look alike come from different tables or passages of the source.

How the values were obtained:
[1] = tested on: acutely dissociated and purified rat OPCs; assay: Acute OL differentiation assay (MBP expression/cell, immunofluorescent image quantification); type: cell-based
Method in brief: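 This acute differentiation assay used purified rat OPCs from postnatal day 6–7 pups, seeded into PDL/laminin-coated 96-well plates in differentiation medium lacking PDGF and FGF. Compounds were applied in quadruplicate after a 1–2 h preincubation at 37 °C, 10 % CO2, with 0.1 % DMSO negative and 40 ng/ml T3 positive controls in eight wells. After fixation on DIV4, anti-MBP immunofluorescence images yielded MBP expression/cell.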

expanded OPCs = assay: cells; details: for viability at 0.1 µM / viability at 1 µM / viability at 10 µM: Rattus norvegicus, 72 h
Method in brief: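 Toxicity screen: compounds added at 0.1, 1 and 10 µM to PDGF-AA-expanded OPCs in 96-well plates, 3-day incubation at 37 °C, 10% CO2, then alamarBlue 1:10 for 4 h with fluorescence readout. Results set screening doses of 10/2, 2/0.4 or 0.4/0.08 µM.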

[2] = Rattus norvegicus, 2 uM test compound, relative to quetiapine, sheet "All OLga data", read-out: OL differentiation, 2 uM (% Quet)
[3] = Rattus norvegicus, 10 uM test compound, relative to quetiapine, sheet "All OLga data", read-out: OL differentiation, 10 uM (% Quet)
[4] = read-out: 0.1 µM (% DMSO), alamarBlue viability of expanded OPCs, compound at 0.1 µM, sheet All Tox data
[5] = read-out: 1 µM (% DMSO), alamarBlue viability of expanded OPCs, compound at 1 µM, sheet All Tox data
[6] = read-out: 10 µM (% DMSO), alamarBlue viability of expanded OPCs, compound at 10 µM, sheet All Tox data
[7] = Rattus norvegicus, test compound at 2 uM, MBP expression relative to quetiapine, NCC library screen, sheet "All OLga data", read-out: 2 uM (% Quet)
[8] = Rattus norvegicus, test compound at 10 uM, MBP expression relative to quetiapine, NCC library screen, sheet "All OLga data", read-out: 10 uM (% Quet)
[9] = alamarBlue viability of expanded OPCs, compound at 0.1 µM, relative to DMSO control
[10] = alamarBlue viability of expanded OPCs, compound at 1 µM, relative to DMSO control
[11] = alamarBlue viability of expanded OPCs, compound at 10 µM, relative to DMSO control
[12] = read-out: 0.1 µM (% DMSO), alamarBlue viability, NCC library compound at 0.1 µM, sheet "All Tox data"
[13] = read-out: 1 µM (% DMSO), alamarBlue viability, NCC library compound at 1 µM, sheet "All Tox data"
[14] = read-out: 10 µM (% DMSO), alamarBlue viability, NCC library compound at 10 µM, sheet "All Tox data"
[15] = Rattus norvegicus, test compound at 2 uM, NCC library screen, sheet "All OLga data", relative to quetiapine, read-out: 2 uM (% Quet)
[16] = Rattus norvegicus, test compound at 10 uM, NCC library screen, sheet "All OLga data", relative to quetiapine, read-out: 10 uM (% Quet)
[17] = Rattus norvegicus, 0.4 uM test compound, relative to quetiapine, sheet "All OLga data", read-out: OL differentiation, 0.4 uM (% Quet)

| SMILES | activation at 2 µM [1, 2] [%] | activation at 10 µM [1, 3] [%] | viability at 0.1 µM (expanded OPCs; [4]) [%] | viability at 1 µM (expanded OPCs; [5]) [%] | viability at 10 µM (expanded OPCs; [6]) [%] | 0.1 µM (% DMSO) (expanded OPCs; [9]) | 1 µM (% DMSO) (expanded OPCs; [10]) | 10 µM (% DMSO) (expanded OPCs; [11]) | viability at 0.1 µM (expanded OPCs; [12]) [%] | viability at 1 µM (expanded OPCs; [13]) [%] | viability at 10 µM (expanded OPCs; [14]) [%] | activation at 2 µM [1, 15] [%] | activation at 10 µM [1, 16] [%] | further results |
| --- | --- | --- | --- | --- | --- | --- | --- | --- | --- | --- | --- | --- | --- | --- |
| Cn1nnc2c(C(N)=O)ncn2c1=O [Temozolomide] | -10.2 | -8.5 | 105 | 94.7 | 100 | – | – | – | – | – | – | – | – | – |
| CC(C)N(CCC(C(N)=O)(c1ccccc1)c1ccccn1)C(C)C (centres unmarked) [Disopyramide] | – | – | – | – | – | 89.6 | 92.1 | 88.7 | – | – | – | – | – | activation at 2 µM [1, 7]: -10.1%; activation at 10 µM [1, 8]: -11.2% |
| CS(=O)(=O)c1ccc(C2=C(c3ccccc3)C(=O)OC2)cc1 [Rofecoxib] | -10.8 | -9 | 91.5 | 97.2 | 115 | – | – | – | – | – | – | – | – | – |
| CC(C(=O)O)c1ccc(CC2CCCC2=O)cc1 (centres unmarked) [loxoprofen] | 3.1 | 10.9 | – | – | – | – | – | – | 99.8 | 92.5 | 87.6 | – | – | – |
| CCC(=O)O[C@@H]1CC(=O)O[C@H](C)C/C=C/C=C/[C@H](O)[C@H](C)C[C@H](CC=O)[C@H](O[C@@H]2O[C@H](C)[C@@H](O[C@H]3C[C@@](C)(O)[C@@H](OC(=O)CC)[C@H](C)O3)[C@H](N(C)C)[C@H]2O)[C@H]1OC [Midecamycin] | -0.9 | -11.3 | 92.7 | 95.7 | 91.2 | – | – | – | – | – | – | – | – | – |
| CC(COc1ccccc1)N(CCCl)Cc1ccccc1 (centres unmarked) [Phenoxybenzamine] | – | – | – | – | – | 109.6 | 116.7 | 142.4 | – | – | – | -11 | 35.4 | – |
| N=C(N)N [Guanidine] | – | – | – | – | – | – | – | – | – | – | – | – | – | 2 uM (% Quet) ([1]; test compound at 2 uM, NCC library screen, sheet "All OLga data", relative to quetiapine): 1.4 % Quet; 10 uM (% Quet) ([1]; test compound at 10 uM, NCC library screen, sheet "All OLga data", relative to quetiapine): 5.3 % Quet; 0.1 µM (% DMSO) (expanded OPCs; alamarBlue viability, NCC library compound at 0.1 µM, sheet "All Tox data"): 86.5 % DMSO; 1 µM (% DMSO) (expanded OPCs; alamarBlue viability, NCC library compound at 1 µM, sheet "All Tox data"): 89.1 % DMSO; 10 µM (% DMSO) (expanded OPCs; alamarBlue viability, NCC library compound at 10 µM, sheet "All Tox data"): 85.5 % DMSO |
| CN(CCCN1c2ccccc2CCc2ccccc21)CC(=O)c1ccc(Cl)cc1 [Lofepramine] | -3.7 | – | 97.9 | 79.6 | 47.1 | – | – | – | – | – | – | – | – | activation at 0.4 µM [1, 17]: 1.3% |
| c1ccc(Cn2ccnc2)cc1 [1-Benzylimidazole] | – | – | – | – | – | – | – | – | 85.4 | 91.8 | 94.3 | 0.1 | 10.7 | – |
| OCCOCCN1CCN(C2=Nc3ccccc3Sc3ccccc32)CC1 [Quetiapine hemifumarate] | – | – | – | – | – | – | – | – | 118 | 149 | 117 | 130 | 87.7 | – |
| Nc1nc(O)c2ncn(COC(CO)CO)c2n1 [Ganciclovir] | – | – | – | – | – | 103.0 | 100.7 | 106.5 | – | – | – | – | – | activation at 2 µM [1, 7]: 3.8%; activation at 10 µM [1, 8]: -9.7% |
| CN1CCC(=C2c3ccccc3CCc3sccc32)CC1 [Pizotyline] | -30.6 | – | 86.7 | 65.3 | 24.6 | – | – | – | – | – | – | – | – | activation at 0.4 µM [1, 17]: -8.8% |
| C=C(CC)C(=O)c1ccc(OCC(=O)O)c(Cl)c1Cl [Ethacrynic Acid] | – | – | – | – | – | 90.2 | 80.6 | 11.2 | – | – | – | -192 | – | activation at 0.4 µM ([1]; Rattus norvegicus, test compound at 0.4 uM, NCC library screen, sheet "All OLga data", relative to quetiapine, read-out: 0.4 uM (% Quet)): -23.7% |
| CN(C)C(=O)Oc1ccc[n+](C)c1 [Pyridostigmine Bromide] | – | – | – | – | – | 92.2 | 86.7 | 84.4 | – | – | – | -0.46 | 21.5 | – |
| CC(C)OC(=O)C(C)(C)Oc1ccc(C(=O)c2ccc(Cl)cc2)cc1 [Fenofibrate] | – | – | – | – | – | 85.2 | 87.6 | 103.9 | – | – | – | 31.5 | -62.3 | – |
| CCC1=C(C)CN(C(=O)NCCc2ccc(S(=O)(=O)NC(=O)N[C@H]3CC[C@H](C)CC3)cc2)C1=O [Glimepiride] | – | – | – | – | – | – | – | – | 97.2 | 82.6 | 83.6 | -12.7 | -54 | – |
| COc1ccccc1OCC(O)COC(N)=O (centres unmarked) [Methocarbamol] | – | – | – | – | – | 89.9 | 92.3 | 88.1 | – | – | – | 2.8 | -3.7 | – |
| NC(=O)c1cccnc1 [Niacinamide] | – | – | – | – | – | – | – | – | 90.4 | 91 | 80.9 | -37.7 | -38.5 | – |
| O=c1[nH]c(=O)n(C2CCCO2)cc1F (centres unmarked) [Tegafur] | -23.9 | -28 | 88.4 | 92.6 | 99.3 | – | – | – | – | – | – | – | – | – |
| CN(C)CCCC1(c2ccc(F)cc2)OCc2cc(C#N)ccc21 (centres unmarked) [Nitalapram, reference compound] | 33 | 46.5 | 85.9 | 101 | 110 | 107.3 | 108.9 | 99.4 | 95.9 | 94.9 | 91.9 | 37.5 | 38.6 | activation at 2 µM [1, 7]: 30.4%; activation at 10 µM [1, 8]: 6.5%; EC50 ([1]; Rattus norvegicus, average EC50 for induction of OL differentiation from independent biological replicates, eight concentrations): 1100 nM; hit in OL differentiation assay, MRF-TMC ([1]; ● = confirmed hit in this paper's assay): ● |
| COc1cc(C)nc(-n2nc(C)cc2OC)n1 [Epirizole] | – | – | – | – | – | – | – | – | 106 | 110 | 112 | -9.9 | -10.5 | – |
| CCOC(=O)O[C@]1(C(=O)OCCl)CC[C@H]2[C@@H]3CCC4=CC(=O)C=C[C@]4(C)[C@H]3[C@@H](O)C[C@@]21C [Loteprednol etabonate] | -10.9 | -29.2 | – | – | – | – | – | – | 104 | 98.4 | 86.4 | – | – | – |
| CC1=C(C(=O)O)N2C(=O)[C@@H](NC(=O)[C@H](N)c3ccccc3)[C@H]2SC1 [Cephalexin] | -1.3 | -4.5 | 103 | 110 | 112 | – | – | – | – | – | – | – | – | – |
| CC(=O)N1CCN(c2ccc(OCC3COC(Cn4ccnc4)(c4ccc(Cl)cc4Cl)O3)cc2)CC1 (centres unmarked) [Ketoconazole] | 16.5 | -67.7 | 98.1 | 126 | 109 | – | – | – | – | – | – | – | – | – |
| O=C(CCCN1CC=C(n2c(=O)[nH]c3ccccc32)CC1)c1ccc(F)cc1 [Droperidol] | 7.3 | -13.2 | – | – | – | – | – | – | 90.8 | 97.2 | 71.6 | – | – | – |
| CN[C@H]1CC[C@@H](c2ccc(Cl)c(Cl)c2)c2ccccc21 [Sertraline] | – | – | 74.6 | 24.6 | 11.1 | 52.7 | 20.4 | 7.7 | – | – | – | – | – | activation at 0.08 µM ([1]; Rattus norvegicus, 0.08 uM test compound, relative to quetiapine, sheet "All OLga data", read-out: OL differentiation, 0.08 uM (% Quet)): 0.9%; activation at 0.4 µM [1, 17]: -63.6%; activation at 0.08 µM ([1]; Rattus norvegicus, test compound at 0.08 uM, MBP expression relative to quetiapine, NCC library screen, sheet "All OLga data", read-out: 0.08 uM (% Quet)): -13.2%; activation at 0.4 µM ([1]; Rattus norvegicus, test compound at 0.4 uM, MBP expression relative to quetiapine, NCC library screen, sheet "All OLga data", read-out: 0.4 uM (% Quet)): -134% |
| CNNCc1ccc(C(=O)NC(C)C)cc1 [Procarbazine] | 0.13 | -31.6 | 82.3 | 87.2 | 96.6 | – | – | – | – | – | – | – | – | – |
